Results from US20260223850A1, “SUBSTITUTED PYRROLIDONE COMPOUND, PREPARATION METHOD THEREFOR, COMPOSITION AND APPLICATION THEREOF” (QINGDAO KINGAGROOT CHEMICAL COMPOUND CO., LTD., priority 2023, published 2026).

Experiments:
Test in all cases: Seedling stage sealing experiment for water-seeding
Format in all cases: in vivo
[1] = tested on: Echinochloa phyllopogon; conditions: 120 g a.i./ha, seedling stage sealing, 15 days, fresh weight control rate
Summary of the method: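 Seeds broadcast on soil in nutrition bowls, covered, kept moist in a water-filled box; compound in acetone diluted with water and spray-tower applied at 120, 60, 30 and 15 g a.i./ha, triplicate. Scored after 15 days in greenhouse on a 0–9 scale of fresh-weight growth control, averaged.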

[2] = tested on: Echinochloa crusgalli; conditions: 120 g a.i./ha, seedling stage sealing, 15 days, fresh weight control rate
[3] = tested on: Leptochloa chinensis; conditions: 120 g a.i./ha, 15 days, fresh weight control rate
Source text: (1) Seedling Stage Sealing Experiment for Water-Seeding:
The activity level criteria for plant damage (i.e., growth control rate) are as follows: • Level 9: completely dead; • Level 8: growth control rate greater than or equal to 90% and less than 100%; • Level 7: growth control rate greater than or equal to 80% and less than 90%; • Level 6: growth control rate greater than or equal to 70% and less than 80%; • Level 5: growth control rate greater than or equal to 50% and less than 70%; • Level 4: growth control rate greater than or equal to 30% and less than 50%; • Level 3: growth control rate greater than or equal to 20% and less than 30%; • Level 2: growth control rate greater than or equal to 10% and less than 20%; • Level 1: growth control rate less than 10%; • Level 0: no effect.
The above growth control rates are fresh weight control rates.
Echinochloa phyllopogon, Digitaria sanguinalis, Huaidao (rice cultivar), etc. were broadcasted on the surface of nutrition bowls filled with soil and fully covered by soil. The foregoing well-prepared nutrition bowls were then placed in a cultivation box with water filled to a suitable height to keep the soil in the nutrition bowls moist. A test compound of the present invention was individually dissolved with acetone, then diluted into solution of a certain concentration using a certain amount of water, and sprayed using a spray tower. The plants were placed on a greenhouse seedbed and cultured for 15 days, and the experimental results were then collected. The compound was applied at 120, 60, 30 and 15 g a.i./ha in triplicate, and the results were averaged.

Row | SMILES | Echinochloa phyllopogon activity level (growth control rate) [1] | Echinochloa crusgalli activity level (growth control rate) [2] | Leptochloa chinensis activity level (growth control rate) [3]
1 | CC(C)c1c(NC(=O)[C@H]2C(=O)N(C)C[C@@H]2c2cccc(C(F)(F)F)c2)cnn1C [194′] | 5 (Level 5: growth control rate greater than or equal to 50% and less than 70%) | 5 (Level 5: growth control rate greater than or equal to 50% and less than 70%) | 6 (Level 6: growth control rate greater than or equal to 70% and less than 80%)
2 | CN1C[C@H](c2cccc(C(F)(F)F)c2)[C@@H](C(=O)Nc2cnn(C)c2C2CC2)C1=O [195′] | 7 (Level 7: growth control rate greater than or equal to 80% and less than 90%) | 9 | 9
3 | CN1C[C@H](c2cccc(C(F)(F)F)c2)[C@@H](C(=O)Nc2cnn(C(F)F)c2C2CC2)C1=O [196′] | 9 | 9 | 9
4 | CC(C)n1ncc(NC(=O)[C@H]2C(=O)N(C)C[C@@H]2c2cccc(C(F)(F)F)c2)c1C1CC1 [197′] | 6 (Level 6: growth control rate greater than or equal to 70% and less than 80%) | 8 (Level 8: growth control rate greater than or equal to 90% and less than 100%) | 9
5 | C=Cc1c(NC(=O)[C@H]2C(=O)N(C)C[C@@H]2c2cccc(C(F)(F)F)c2)cnn1C [203′] | 9 | 9 | 9
6 | CN1C[C@H](c2cccc(C(F)(F)F)c2)[C@@H](C(=O)Nc2c(O)nn(C)c2F)C1=O [212′] | 9 | 9 | 9
7 | COc1cccc([C@H]2CN(C)C(=O)[C@@H]2C(=O)Nc2cnn(C)c2C2CC2)c1 [217′] | 6 (Level 6: growth control rate greater than or equal to 70% and less than 80%) | 9 | 6 (Level 6: growth control rate greater than or equal to 70% and less than 80%)
8 | CN1C[C@H](c2cccc(OC(F)(F)F)c2)[C@@H](C(=O)Nc2c(O)nn(C)c2F)C1=O [229′] | 9 | 9 | 9
9 | CN1C[C@H](c2cccc(OC(F)(F)C(F)F)c2)[C@@H](C(=O)Nc2cnn(C)c2Cl)C1=O [231′] | 6 (Level 6: growth control rate greater than or equal to 70% and less than 80%) | 9 | 9
10 | CN1C[C@H](c2cc(F)cc(F)c2)[C@@H](C(=O)Nc2c(O)nn(C)c2F)C1=O [263′] | 8 (Level 8: growth control rate greater than or equal to 90% and less than 100%) | 9 | 9
11 | Cc1cc(Br)cc([C@H]2CN(C)C(=O)[C@@H]2C(=O)Nc2cnn(C)c2Cl)c1 [265′] | 9 | 9 | 9
12 | Cc1cc(C)cc([C@H]2CN(C)C(=O)[C@@H]2C(=O)Nc2cnn(C(F)F)c2Cl)c1 [269′] | 9 | 9 | 9
13 | C=Cc1c(NC(=O)[C@H]2C(=O)N(C)C[C@@H]2c2cc(C)cc(C)c2)cnn1C [275′] | 9 | 9 | 9
14 | CN1C[C@H](c2cc(F)cc(C(F)(F)F)c2)[C@@H](C(=O)Nc2cnn(C3CC3)c2Cl)C1=O [290′] | 8 (Level 8: growth control rate greater than or equal to 90% and less than 100%) | 9 | 9
15 | CC(C)n1ncc(NC(=O)[C@H]2C(=O)N(C)C[C@@H]2c2cc(F)cc(C(F)(F)F)c2)c1Cl [291′] | 9 | 9 | 9
16 | CN1C[C@H](c2cc(F)cc(C(F)(F)F)c2)[C@@H](C(=O)Nc2cnn(C)c2C2CC2)C1=O [293′] | 9 | 9 | 9
17 | COc1cc(Cl)cc([C@H]2CN(C)C(=O)[C@@H]2C(=O)Nc2cnn(C)c2Cl)c1 [297′] | 6 (Level 6: growth control rate greater than or equal to 70% and less than 80%) | 9 | 9
18 | CCOc1cc(F)cc([C@H]2CN(C)C(=O)[C@@H]2C(=O)Nc2cnn(C)c2Cl)c1 [299′] | 9 | 9 | 9
19 | COc1cc(C)cc([C@H]2CN(C)C(=O)[C@@H]2C(=O)Nc2cnn(C)c2Cl)c1 [300′] | 7 (Level 7: growth control rate greater than or equal to 80% and less than 90%) | 9 | 9
20 | CN1C[C@H](c2ccc(F)c(Cl)c2)[C@@H](C(=O)Nc2cnn(C)c2C2CC2)C1=O [308′] | 9 | 9 | 9
21 | CN1C[C@H](c2ccc(F)c(Cl)c2)[C@@H](C(=O)Nc2c(O)nn(C)c2F)C1=O [311′] | 8 (Level 8: growth control rate greater than or equal to 90% and less than 100%) | 9 | 9
22 | CN1C[C@H](c2ccc(C(F)(F)F)c(F)c2)[C@@H](C(=O)Nc2cnn(C)c2Cl)C1=O [315′] | 8 (Level 8: growth control rate greater than or equal to 90% and less than 100%) | 9 | 9
23 | CC(C)Oc1cc([C@H]2CN(C)C(=O)[C@@H]2C(=O)Nc2cnn(C)c2Cl)ccc1F [318′] | 8 (Level 8: growth control rate greater than or equal to 90% and less than 100%) | 9 | 8 (Level 8: growth control rate greater than or equal to 90% and less than 100%)
24 | COc1cc([C@H]2CN(C)C(=O)[C@@H]2C(=O)Nc2cnn(C)c2Cl)ccc1Cl [319′] | 5 (Level 5: growth control rate greater than or equal to 50% and less than 70%) | 5 (Level 5: growth control rate greater than or equal to 50% and less than 70%) | 6 (Level 6: growth control rate greater than or equal to 70% and less than 80%)
25 | COc1cc([C@H]2CN(C)C(=O)[C@@H]2C(=O)Nc2cnn(C)c2Cl)ccc1C [321′] | 6 (Level 6: growth control rate greater than or equal to 70% and less than 80%) | 9 | 7 (Level 7: growth control rate greater than or equal to 80% and less than 90%)
26 | CN1C[C@H](c2ccc3ccccc3c2)[C@@H](C(=O)Nc2cnn(C)c2Cl)C1=O [353′] | 7 (Level 7: growth control rate greater than or equal to 80% and less than 90%) | 9 | 9
27 | CN1CC(c2cccc(Cl)c2)C(C(=O)Nc2cnn(C)c2Cl)C1=O (stereo not drawn) [Compound 16] | 5 (Level 5: growth control rate greater than or equal to 50% and less than 70%) | 6 (Level 6: growth control rate greater than or equal to 70% and less than 80%) | 9
28 | C=CCc1cccc(C2CN(C)C(=O)C2C(=O)Nc2cnn(C)c2Cl)c1 (stereo not drawn) [Compound 24] | 8 (Level 8: growth control rate greater than or equal to 90% and less than 100%) | 9 | 9
29 | CN1CC(c2cccc(OC(F)(F)F)c2)C(C(=O)Nc2cnn(C)c2Cl)C1=O (stereo not drawn) [Compound 33] | 5 (Level 5: growth control rate greater than or equal to 50% and less than 70%) | 9 | 9
